Laboratory results from the METLIN SMRT retention time set (Domingo-Almenara et al. 2019).

assay: gradient 5% acetonitrile 3 min, to 50% in 2 min, to 85% in 15 min, held 3 min, 100 µL/min; conditions: column: Zorbax Extend-C18 2.1 x 50 mm; eluents: water / acetonitrile, 0.1% formic acid
In short: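 In both positive and negative ionization mode, a quadrupole time-of-flight mass spectrometer coupled to HPLC analyzed pure standards run in mixtures of ~100 molecules. The Zorbax Extend-C18 column (2.1 × 50 mm, 1.8 μm) was operated at 100 μL/min with water and acetonitrile, each containing 0.1% formic acid. The dead volume was 40 μL and the dwell volume 900 μL. Retention time came from adduct peaks that were computationally picked and individually inspected by hand.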

Row | SMILES | RP-LC retention time [s]
1 | CCn1cc(C(=O)NCc2cccc(Br)c2)c2cccnc21 | 854
2 | O=c1c(NCCc2ccc(Cl)cc2)nc2ccncc2n1Cc1ccccc1 | 766
3 | O=C(C1CCOC1)N1CCC(N(Cc2ccccc2)C2CCOCC2)CC1 (centres undefined) | 572
4 | Cc1cccc(Cl)c1NC(=O)Cn1ncc2c(N3CCN(c4ccccn4)CC3)ncnc21 | 593
5 | CCN1CCN(CCCNC(=O)CCCn2c3ccccc3c3cnn(C)c(=O)c32)CC1 | 576
6 | CCCCCn1c(=O)c2ccccc2n(Cc2nc(-c3ccc4c(c3)OCO4)no2)c1=O | 1180
7 | COc1ccc(NC(=O)Cn2nc3nc(N4CCCC4)ccn3c2=O)cc1OC | 617
8 | CCC(NC(=O)c1cn2cc(C)ccc2n1)c1ccc(OC)cc1 (centres undefined) | 697
9 | CCc1nccn1Cc1nc(-c2cccc(Br)c2)no1 | 685
10 | CCOc1ccc(NC(=O)Cn2nc3c(Oc4ccccc4)nccn3c2=O)cc1 | 822
11 | O=C(CN1C(=O)CCCc2cc(S(=O)(=O)N3CCCCCC3)ccc21)Nc1ccc(F)cc1F | 962
12 | O=C(Nc1cc(F)cc(F)c1)C1CCN(C(=O)c2ncn3c2COC(c2ccc(F)cc2)C3)CC1 (centres undefined) | 858
13 | CN1CC2(CCCC2)N(C(=O)COc2ccc(F)cc2)CC1=O | 740
14 | CN1CCN(CCNC(=O)CN2C(=O)C3CCCCN3c3ccc(C(=O)N(C)C)cc32)CC1 (centres undefined) | 578
15 | Cc1ccc(-c2nnc(Cc3nc(-c4ccncc4)no3)o2)cc1C | 850
16 | CS(=O)(=O)c1ccc(Nc2nc(C(=O)Nc3ccc(F)c(Cl)c3)cs2)cc1 | 843
17 | Cc1ccc(-c2cc(OCC(N)=O)c3cc(NC(=O)COc4ccccc4)ccc3n2)cc1 | 700
18 | Cc1cc(=O)n(CC(=O)Nc2ccc(F)cc2C)c(N2CCCCC2)n1 | 695
19 | Cc1cc(C(=O)Nc2ccc(-c3nc4ccccc4o3)cc2)c(C)o1 | 1020
20 | Cc1nn(CCC(=O)NC2CCCCCC2)c(=O)c2nn(-c3ccccc3)c(C)c12 | 830
21 | Cc1cc(C)cc(NC(=O)Cn2cnc(C)c(C)c2=O)c1 | 710
22 | COc1ccc(OC)c(NC(=O)NC2CCN(c3cc(C)cc(C)c3)C2=O)c1 (centres undefined) | 887
23 | O=S(=O)(c1ccc(-c2nnc(C3CC3)o2)o1)N1CCN(c2ccc(F)cc2)CC1 | 981

Row | SMILES | RP-LC retention time [s]
24 | CN(C)c1ccc(NS(=O)(=O)c2c(F)c(F)c(F)c(F)c2F)cc1 | 869
25 | Cn1cc(CCNC(=O)Nc2ccc(F)cc2)c2cccnc21 | 679
26 | O=C(c1ccc2cc[nH]c2c1)N1CCN(c2cc(-c3ccccc3)[nH]n2)CC1 | 748
27 | NS(=O)(=O)c1ccc(CCNC(=O)C2CCCN(c3nc4ccccc4[nH]3)C2)cc1 (centres undefined) | 577
28 | O=C(Nc1ccc(-n2cnnn2)cc1)c1ccc(N2CCCC2)nn1 | 620
29 | Cc1nn(-c2ccccc2)c2c1C(c1ccc([N+](=O)[O-])cc1)C(C#N)=C(N)O2 (centres undefined) | 760
30 | COc1ccc(S(=O)(=O)N2CCCC(C(=O)Nc3ccc4c(c3)OCO4)C2)cc1C (centres undefined) | 957
31 | COc1ccc(NC(=O)N2CCN(c3nc4ccccc4nc3C(F)(F)F)CC2)cc1 | 993
32 | COc1ccc(C2c3c(n(C)c4ccccc34)C(=O)N2CC(=O)NCc2ccco2)cc1 (centres undefined) | 924
33 | CCOc1ccc(NC(=O)CCc2cccc3[nH]ccc23)cc1 | 875
34 | COC(=O)c1cccc(COC(=O)C2=CN(Cc3ccccc3)S(=O)(=O)N=C2C)c1 | 1060
35 | CCc1ccccc1N1C(=O)CC(N2CCC(C(N)=O)CC2)C1=O (centres undefined) | 591
36 | Cc1cc(Cl)ccc1NS(=O)(=O)c1cc(-c2nc(C(C)(C)C)cs2)cs1 | 1360
37 | CCn1ccc(C(=O)N2CCN(c3ccc(=O)n(-c4ccc(Cl)cc4)n3)CC2)n1 | 753
38 | Cc1cccc(CC(=O)N2C[C@@H]3C[C@H](NC(=O)c4ccccc4)[C@H]2C3)c1 | 794
39 | CN(Cc1ccccc1)c1ccc(-c2noc(CN3CCN(c4ccccc4)CC3)n2)cn1 | 1100
40 | Cc1ccc(S(=O)(=O)N2CCCC2)cc1-c1nnc(-c2ccc(F)cc2)o1 | 1040
41 | O=C(Cn1nc(C(=O)N2CCCC2)c2ccccc21)NCc1ccccc1Cl | 824
42 | Cc1ccc(NC(=O)C2CCN(S(=O)(=O)c3cc(C(=O)N4CCCC4)n(C)c3)CC2)cc1Cl | 875
43 | Cc1ccn2c(NC(=O)c3cccs3)c(-c3ccccc3)nc2c1 | 633
44 | CC(C)Cc1ccc(S(=O)(=O)N2C[C@@H](F)C[C@H]2C(=O)N2CCCCC2)cc1 | 983
45 | CC(C)CC(=O)N1CC[C@@H]2COCCN(C)[C@@H]2C1 | 575
46 | CCc1ccc(NC(=O)N2CCCC(C)(C(=O)NCc3ccccc3)C2)cc1 (centres undefined) | 878

Row | SMILES | RP-LC retention time [s]
47 | CC(C)Cn1cc(CCNS(=O)(=O)c2ccc(F)c(Cl)c2)c2cccnc21 | 1000
48 | Cc1cccc(NC(=O)CN2C(=O)C3CCCCN3c3ccc(S(=O)(=O)N4CCCCC4)cc32)c1 (centres undefined) | 1080
49 | COCc1noc([C@@H]2CN(C(=O)C3CC=CCC3)C[C@H]2C(N)=O)n1 (some centres undefined) | 610
50 | CCCN1C(=O)COc2ccc(-c3noc(-c4cc(OC)cc(OC)c4)n3)cc21 | 1240
51 | CCn1cnc2ccc(-c3noc(CNC(=O)c4ccccc4)n3)cc21 | 620
52 | COc1ccc2c(c1)[C@]13CCCC[C@@H]1[C@H](C2)N(C)CC3 | 732
53 | CCCN(CC1CCOC1)C(=O)Nc1cc(Cl)ccc1OC (centres undefined) | 961
54 | CCN(CC)C(=O)CN1CCN(c2cc(C(=O)O)c3cc(NC(=O)C(C)(C)C)ccc3n2)CC1 | 572
55 | CCn1cc(CCN2CCN(S(=O)(=O)c3ccc4c(c3)CCC4)CC2)c2cccnc21 | 702
56 | Cc1cccc(N2CCN(c3cc(-c4ccccc4)nc4c(-c5ccccc5)cnn34)CC2)n1 | 1010
57 | CCOc1ccc(N2CC(c3nc(-c4ccccc4Cl)no3)CC2=O)cc1 (centres undefined) | 1000
58 | Cn1c(=O)n(C)c2cc(CNC(C)(C)CC(C)(C)C)ccc21 | 624
59 | Cc1csc(-c2cc(S(=O)(=O)Nc3ccc(S(N)(=O)=O)cc3)c(C)n2C)n1 | 749
60 | Cc1ccccc1NS(=O)(=O)c1ccc2c(c1)C(=O)N(C)c1ncccc1O2 | 892
61 | COc1cccc(CNC(=O)C2CCN(c3ccc(SCc4ccccc4)nn3)CC2)c1 | 758
62 | O=C(Nc1c(C(=O)NCCc2ccccc2)[nH]c2ccc(F)cc12)c1ccccc1 | 998
63 | CCOc1ccc(-c2csc3c(=O)n(Cc4ccccn4)cnc23)cc1OCC | 865
64 | COc1ccc(CCNC(=O)Cn2cnc(C)cc2=O)cc1OC | 574
65 | Cc1oc(C2CCN(S(=O)(=O)c3ccc(C(C)C)cc3)CC2)nc1C(=O)N1CCCC1 | 1070
66 | COc1ccc(-c2cc(C(=O)NCC(c3cccs3)N(C)C)no2)cc1 (centres undefined) | 675
67 | CCn1nc(C)c(-c2cc(C(=O)NCC3Cn4cccc4C(=O)N3C)no2)c1C (centres undefined) | 679
68 | COc1ccc(C(=O)N2c3ccccc3NC3=C(C(=O)CCC3)C2c2ccco2)cc1 (centres undefined) | 762
69 | CN(C)c1cccc(C(=O)NCc2[nH]nc3ccccc23)c1 | 580

Row | SMILES | RP-LC retention time [s]
70 | COc1ccc(CCC(=O)NCCc2cn(C)c3ncccc23)cc1 | 669
71 | O=C(NC(Cc1ccccc1)C(=O)N1CCN(c2ccccn2)CC1)c1cccc(Cl)c1 (centres undefined) | 698
72 | O=C(NCCn1c(=O)n(Cc2ccccc2)c2cccnc21)c1ccoc1 | 725
73 | CCCCNc1nc(N)ncc1[N+](=O)[O-] | 790
74 | COc1ccc(OCc2nc(CCN(C)C(=O)COc3ccccc3)no2)cc1 | 852
75 | CC(C)NC(=O)C1CCCN(c2nc3ncn(CC(=O)NC4CCc5ccccc54)c(=O)c3s2)C1 (centres undefined) | 709
76 | CNC(=O)CCNc1c(-c2cccc(F)c2)nc2cnccn12 | 606
77 | CC1=NOC(C)(CNS(=O)(=O)c2ccc(F)cc2)C1 (centres undefined) | 728
78 | Cc1noc(C)c1CC(=O)N1CCOc2ccc(N(C)C)cc2C1 | 584
79 | CNC(=O)C(=O)NCC1CCN(S(C)(=O)=O)CC1 | 541
80 | Fc1ccccc1-c1noc(-c2nc(C3CC3)no2)n1 | 1050
81 | O=C(Cc1nnc(-c2cccc(F)c2)o1)Nc1ccccc1 | 808
82 | CC1(C)CC(=O)c2cn(-c3ccccc3)c(=O)c(C(=O)N3CCCC3)c2C1 | 699
83 | NCC(O)COCC1COc2ccccc2O1 (centres undefined) | 549
84 | CCCC(NC(=O)c1cccc(N(C)C)c1)C(=O)Nc1nc2ccccc2[nH]1 (centres undefined) | 667
85 | Cn1cnc(S(=O)(=O)N2CCN(Cc3cccc(F)c3)C3(CCOCC3)C2)c1 | 598
86 | CC(=O)Nc1ccc(-c2nc(-c3cccc(-c4ccn[nH]4)c3)no2)cc1 | 790
87 | Cn1ncc2c(N3CCSCC3)nc(C(=O)Nc3cccc(OC(F)(F)F)c3)nc21 | 1010
88 | CCOCCCNC(=O)c1cc2n(n1)CCCN(Cc1ccccc1)C2=O | 724
89 | CCN1CCn2cc(S(=O)(=O)Nc3ccc(F)c(F)c3)cc2C1=O | 727
